Results from patent US20100267712A1, “ISOINDOLINE COMPOUNDS FOR THE TREATMENT OF SPINAL MUSCULAR ATROPHY AND OTHER USES” (The United States of America, as represented by the …, priority 2007, published 2010).
Structures can show the parent of a compound that is named as a salt.

Legend:
[1] = tested on: SMN2-linked luciferase-reporter gene construct; experiment: SMN Splice Reporter Assay (SMN2-linked luciferase reporter); type: cell-based; conditions: for EC50: cervical carcinoma cell lines, SMN2 splice luciferase reporter; for Fold Increase: fold-increase of luciferase over baseline reading of transformed cells without any test compound
How it was run: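 Cervical carcinoma cells carrying an SMN2-luciferase splicing reporter, in-frame only with exon 7 inclusion, were treated with compound. Luciferase activity reported as fold increase over untreated transformed cells, with EC50 derived.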

[2] = tested on: translational stop codon read-through, human SMN2 open reading frame-luciferase; experiment: Translational read-through luciferase reporter assay (luciferase preceded by the open reading frame of the human SMN2 gene); type: cell-based
Text: This assay was similar in design to that described in WO 01/44516 A2. This was a cell-based luciferase reporter assay designed to detect translational read-through via insertion of a translational stop codon within the coding sequence that includes luciferase. In the presence of compounds that promote read-through of translational stop codons, active luciferase was produced and detected via chemiluminescence. Compounds of the invention typically were active in three versions of this assay: luciferase reporter containing a UGA stop codon, luciferase reporter containing a UAG stop codon, which is the first stop codon downstream of the improper splice junction between exons 6 and 8 in the human SMN2 transcript, and luciferase preceded by the open reading frame of the human SMN2 gene.

SMILES | melting point | EC50 [1] | EC50 [2] | Fold Increase [1] | maximal fold induction [2]
COc1ccc2c(c1)C(=O)N(c1ccc3cnn(C)c3c1)C2 | 175 to 177 °C |  |  |  | 
COc1ccc2c(c1)C(=O)N(c1ccc3ccn(CCN)c3c1)C2 (as salt: hydrochloride) [Example 23, 2-(1-(2-aminoethyl)-1H-indol-6-yl)-6-methoxyisoindolin-1-one hydrochloride] | 280 to 282 °C (dec.) |  |  |  | 
COc1ccc2c(c1)C(=O)N(c1ccc3c(ccn3C)c1)C2 [Example 1, 6-methoxy-2-(1-methyl-1H-indol-5-yl)isoindolin-1-one] | 193 to 197 °C |  |  |  | 
O=C1c2ccccc2CN1c1ccc2c(c1)OCCO2 [Example 116069] |  | 95 nM | 2440 nM | 1.348 | 1.97
Cc1cc2cc(N3Cc4ccc(N5CCCC5)cc4C3=O)ccc2n1C [Example 123330] |  |  |  | 1.113 | 1.4
Cc1cc2ccc(N3Cc4ccc(Cl)cc4C3=O)cc2n1C [Example 124861] |  |  |  | 1.268 | 
Cn1ccc2cc(N3Cc4ccc(NC(=O)c5ccccc5)cc4C3=O)ccc21 [Example 124862] |  |  |  | 1.07 | 
CC(C)C(=O)Nc1ccc2c(c1)C(=O)N(c1ccc3c(ccn3C)c1)C2 [Example 124863] |  |  |  | 1.251 | 
Cn1ccc2ccc(N3Cc4ccc(NS(C)(=O)=O)cc4C3=O)cc21 [Example 124977] |  |  |  | 1.061 | 
Cc1cc2ccc(N3Cc4ccc(-c5ccccc5)cc4C3=O)cc2n1C [Example 124978] |  |  |  | 1.115 | 
COc1ccc2c(c1)C(=O)N(c1ccc3c(c1)cc(-c1ccccc1)n3C)C2 [Example 124979] |  |  |  | 1.378 | 
Cn1ccc2cc(N3Cc4ccc(NS(C)(=O)=O)cc4C3=O)ccc21 [Example 124980] |  |  |  | 1.534 | 
Cn1ccc2ccc(N3Cc4ccc(NC=O)cc4C3=O)cc21 [Example 124981] |  |  |  | 1.638 | 
CCCOc1ccc2c(c1)C(=O)N(c1ccc3cc(C)n(C)c3c1)C2 [Example 124982] |  |  |  | 1.221 | 
CCOc1ccc2c(c1)C(=O)N(c1ccc3cc(C)n(C)c3c1)C2 [Example 124983] |  |  |  | 1.305 | 
Cc1cc2ccc(N3Cc4ccc(O)cc4C3=O)cc2n1C [Example 124984] |  |  |  | 1.401 | 
Cc1cc2ccc(N3Cc4ccc(-c5cccnc5)cc4C3=O)cc2n1C [Example 125093] |  |  |  | 1.082 | 
CC(C)n1ccc2cc(N3Cc4ccc(N5CCCC5)cc4C3=O)ccc21 [Example 125384] |  |  |  | 1.091 | 
Cc1cc2cc(N3Cc4ccc(Br)cc4C3=O)ccc2n1C(C)C [Example 125385] |  |  |  | 1.454 | 
CCCc1ccc2c(c1)C(=O)N(c1ccc3c(ccn3C(C)C)c1)C2 [Example 125386] |  |  |  | 1.037 | 
CCCc1ccc2c(c1)C(=O)N(c1ccc3c(c1)cc(C)n3C(C)C)C2 [Example 125601] |  |  |  | 1.027 | 
Cc1cc2cc(N3Cc4ccc(N(C)C)cc4C3=O)ccc2n1C(C)C [Example 125602] |  |  |  | 1.139 | 
Cc1cc2cc(N3Cc4ccc(N5CCCC5)cc4C3=O)ccc2n1C(C)C [Example 125603] |  |  |  | 0.995 | 
CC(=O)Nc1ccc2c(c1)C(=O)N(c1ccc3c(c1)cc(C)n3C(C)C)C2 [Example 125822] |  |  |  | 1.329 | 

Second part, led by results:

melting point | EC50 [1] | EC50 [2] | SMILES | Fold Increase [1] | maximal fold induction [2]
 | 20 nM | 421 nM | COc1ccc2c(c1)C(=O)N(c1ccc3c(c1)OCCO3)C2 [Example 116239] | 1.228 | 2.02
 | 9 nM | 4180 nM | COc1ccc2c(c1)C(=O)N(c1ccc3c(c1)OC(C)(C)O3)C2 [Example 116566] | 1.308 | 1.36
 | 14 nM | 2090 nM | Cn1ccc2cc(N3Cc4cc5c(cc4C3=O)OCCO5)ccc21 [Example 118275] | 1.484 | 1.28
 | 22 nM | 220 nM | COc1ccc2c(c1)C(=O)N(c1ccc3ccoc3c1)C2 [Example 118740] | 1.388 | 1.67
 | 71 nM | 2800 nM | COc1ccc2c(c1)C(=O)N(c1ccc3c(ccn3C(C)C)c1)C2 [Example 119518] | 1.617 | 1.2
 | 96 nM | 2960 nM | Cn1ccc2cc(N3Cc4ccc(Br)cc4C3=O)ccc21 [Example 119521] | 1.491 | 1.56
 | 59 nM | 6030 nM | COCn1ccc2cc(N3Cc4ccc(OC)cc4C3=O)ccc21 [Example 119658] | 1.42 | 1.19
 | 68 nM | 752 nM | COCCn1ccc2cc(N3Cc4ccc(OC)cc4C3=O)ccc21 [Example 119659] | 1.405 | 1.38
 | 117 nM | 676 nM | COc1ccc2c(c1)C(=O)N(c1ccc3c(c1)N(C)CCO3)C2 [Example 119867] | 1.495 | 2.04
 | 2060 nM | 19400 nM | COc1cc2c(cc1OC)C(=O)N(c1ccc3ccn(C)c3c1)C2 [Example 120594] | 1.561 | 2.08
 | 61 nM | 1890 nM | Cn1ccc2cc(N3Cc4ccc(Cl)cc4C3=O)ccc21 [Example 120599] | 1.407 | 1.88
 | 59 nM | 4890 nM | COc1ccc2c(c1)C(=O)N(c1ccc3c(cnn3C)c1)C2 [Example 120600] | 1.312 | 1.83
 |  | 15600 nM | COc1ccc2c(c1)C(=O)N(c1ccc3[nH]ncc3c1)C2 [Example 120601] | 1.059 | 1.65
 | 415 nM | 7910 nM | COc1ccc2c(c1)C(=O)N(c1ccc3cnn(C)c3c1)C2 [Example 120604] | 1.441 | 1.65
 | 70 nM | 641 nM | COc1ccc2c(c1)C(=O)N(c1ccc3nccnc3c1)C2 [Example 120791] | 1.372 | 1.91
 | 1590 nM | 14100 nM | COc1ccc2c(c1)C(=O)N(c1ccc3nccn3c1)C2 [Example 120955] | 1.265 | 1.66
 |  | 32 nM | CC(C)n1ccc2cc(N3Cc4ccc(OC(F)F)cc4C3=O)ccc21 [Example 121259] | 1.166 | 1.03

melting point | EC50 [1] | EC50 [2] | SMILES | Fold Increase [1] | maximal fold induction [2]
 | 1360 nM | 2650 nM | COc1ccc2c(c1)C(=O)N(c1ccc3nc(C)ncc3c1)C2 [Example 121924] | 1.489 | 1.66
 | 143 nM | 1290 nM | CC(=O)Nc1ccc2c(c1)C(=O)N(c1ccc3c(ccn3C)c1)C2 [Example 122435] | 1.412 | 1.98
 | 24 nM | 667 nM | COc1ccc2c(c1)C(=O)N(c1ccc3sc(C)cc3c1)C2 [Example 122685] | 1.251 | 1.87
 | 207 nM | 12800 nM | Cc1cc2cc(N3Cc4ccc(Br)cc4C3=O)ccc2n1C [Example 122818] | 1.551 | 1.81
 | 63 nM | 97700 nM | Cc1cc2cc(N3Cc4ccc(OC(C)C)cc4C3=O)ccc2n1C [Example 123934] | 1.554 | 1.3
 | 135 nM |  | Cn1ccc2ccc(N3Cc4ccc(OC5CCCC5)cc4C3=O)cc21 [Example 124860] | 1.582 | 
 | 277 nM |  | CC(C)C(=O)Nc1ccc2c(c1)C(=O)N(c1ccc3c(ccn3C)c1)C2 [Example 124864] | 1.519 | 
 | 9 nM |  | CC(C)n1ccc2cc(N3Cc4ccc(Cl)cc4C3=O)ccc21 [Example 125094] | 1.256 | 1.16
 | 3 nM |  | CC(C)Oc1ccc2c(c1)C(=O)N(c1ccc3cc[nH]c3c1)C2 [Example 125095] | 1.134 | 
 | 44 nM |  | Cn1ccc2cc(N3Cc4ccc(NC=O)cc4C3=O)ccc21 [Example 125096] | 1.371 | 
 | 50 nM |  | COc1ccc2c(c1)C(=O)N(c1ccc3cc(C)[nH]c3c1)C2 [Example 125097] | 1.347 | 
 | 134 nM |  | Cc1cc2ccc(N3Cc4ccc(OC(C)C)cc4C3=O)cc2n1C [Example 125098] | 1.251 | 
 | 15 nM |  | CC(=O)Nc1ccc2c(c1)C(=O)N(c1ccc3cc[nH]c3c1)C2 [Example 125269] | 1.416 | 
 | 16 nM |  | CC(C)n1ccc2cc(N3Cc4ccc(Br)cc4C3=O)ccc21 [Example 125270] | 1.446 | 1.19
 | 22 nM |  | CC(C)n1ccc2cc(N3Cc4ccc(N(C)C)cc4C3=O)ccc21 [Example 125271] | 1.285 | 
 | 4 nM |  | CN(C)c1ccc2c(c1)C(=O)N(c1ccc3cc[nH]c3c1)C2 [Example 125600] | 1.405 | 
 | 63 nM |  | CC(=O)Nc1ccc2c(c1)C(=O)N(c1ccc3c(ccn3C(C)C)c1)C2 [Example 126111] | 1.34 | 
